Source: PMC5970065 (Biochimica et biophysica acta, 2018)

Target: myeloperoxidase (MPO) (Homo sapiens, UniProt P05164)
Type: biochemical

myeloperoxidase (MPO), sequence (P05164 165-273): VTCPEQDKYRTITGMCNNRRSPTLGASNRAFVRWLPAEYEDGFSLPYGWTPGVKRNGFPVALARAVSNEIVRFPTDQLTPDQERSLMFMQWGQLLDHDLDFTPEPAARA
myeloperoxidase (MPO), sequence (P05164 279-745): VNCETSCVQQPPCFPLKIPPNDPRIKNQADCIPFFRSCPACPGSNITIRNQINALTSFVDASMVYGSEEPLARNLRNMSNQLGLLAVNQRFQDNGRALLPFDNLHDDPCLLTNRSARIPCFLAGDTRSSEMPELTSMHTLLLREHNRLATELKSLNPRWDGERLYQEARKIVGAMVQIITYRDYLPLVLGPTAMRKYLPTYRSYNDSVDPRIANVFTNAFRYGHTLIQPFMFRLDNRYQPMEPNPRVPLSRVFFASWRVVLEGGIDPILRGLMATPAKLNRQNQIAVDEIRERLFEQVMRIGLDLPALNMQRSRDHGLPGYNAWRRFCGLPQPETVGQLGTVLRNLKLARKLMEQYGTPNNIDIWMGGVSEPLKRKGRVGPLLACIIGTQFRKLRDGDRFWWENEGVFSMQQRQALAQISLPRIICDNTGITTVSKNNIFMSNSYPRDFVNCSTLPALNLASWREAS

## COc1cc(CC(CO[C@@H]2O[C@H](CO)[C@@H](O)[C@H](O)[C@H]2O)C(CO[C@@H]2O[C@H](CO)[C@@H](O)[C@H](O)[C@H]2O)Cc2ccc(O)c(OC)c2)ccc1O (stereo partly shown) [LGM2605]
  IC50: 63.5 µM
